Source: patent US20090264421A1 (priority 2007, published 2009)

Columns and labels:
[1] = test system: RPMI 8226 myeloma xenografts; assay: RPMI 8226 SCID mouse flank xenograft model; assay type: in vivo; conditions: 0.25 mg/kg intraperitoneally twice weekly, three weeks of treatment of established tumors, p<0.05
Method: FIG. 4. Patient myeloma cells treated in mixed culture are selectively killed by chaetocin in comparison to other bone marrow leukocytes, and chaetocin has in vivo anti-myeloma activity. A-C. Unsorted bone marrow leukocytes obtained from 4 patients with multiple myeloma were treated with 100 nM Chaetocin or diluent for 24 hours and then subjected to FACS analyses to examine induced cell death in various leukocyte subpopulations. […] Results from 4 unsorted patient marrow leukocyte samples are indicated in C, indicating selective killing of myeloma cells by chaetocin in mixed culture in all 4 examined patient samples. In A-C, surviving cells were defined as those with low annexin and 7-AAD staining. D. Chaetocin has in vivo anti-myeloma activity in the RRMI 8226 SCID flank xenograft mouse model. […]
In vivo experiments: The in vivo effects of chaetocin were preliminarily explored at Southern Research Institute with assistance from Dr. William Waud (Birmingham, Ala.) in SCID mice using subcutaneously flank-implanted RPMI 8226 myeloma xenografts using a twice-weekly intraperitoneal administration schedule, with chaetocin formulated in 25% DMSO and 75% PEG400. Tumor weights were calculated from volumes derived from direct tumor measurements. […]

TrxR1 = target: T1, TrxR1 (Rattus norvegicus, UniProt O89049); conditions: substrate of TrxR1, NADPH oxidation
T1 sequence (O89049 1-499): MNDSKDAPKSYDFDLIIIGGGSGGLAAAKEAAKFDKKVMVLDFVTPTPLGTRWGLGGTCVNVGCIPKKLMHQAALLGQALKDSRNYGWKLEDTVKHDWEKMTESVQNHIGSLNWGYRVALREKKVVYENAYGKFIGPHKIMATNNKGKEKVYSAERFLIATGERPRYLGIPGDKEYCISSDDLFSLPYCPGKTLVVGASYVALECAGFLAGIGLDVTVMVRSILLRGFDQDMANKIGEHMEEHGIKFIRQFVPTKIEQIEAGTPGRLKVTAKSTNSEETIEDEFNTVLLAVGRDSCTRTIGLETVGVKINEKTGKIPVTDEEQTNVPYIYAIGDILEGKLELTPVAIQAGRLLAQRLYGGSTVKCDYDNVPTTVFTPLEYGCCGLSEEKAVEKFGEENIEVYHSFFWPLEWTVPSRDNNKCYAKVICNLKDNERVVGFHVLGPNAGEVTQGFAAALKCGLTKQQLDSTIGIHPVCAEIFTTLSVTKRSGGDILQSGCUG
Source text: Reagents: Chaetocin, β-Nicotinamide adenine dinucleotide 2′-phosphate reduced tetrasodium salt hydrate (NADPH), rat liver thioredoxin reductase, 5,5′-dithiobis(2-nitrobenzoic acid) (DTNB), oxidized glutathione (GSSG), bovine insulin, gliotoxin, thioredoxin reductase assay kit, anti-actin antibody and Celytic lysis reagent were purchased from Sigma (St. Louis, Mo.); yeast glutathione reductase and Complete Protease Inhibitor Tablets from Roche (Indianapolis, Ind.); BCA protein from Pierce (Rockford, Ill.); oxidized E. coli thioredoxin and dithiothreitol (DTT) from Promega (Madison, Wis.); verruculogen from Calbiochem (San Diego, Calif.); 4-acetamido-4′-maleimidylstilbene-2,2′-disulfonic acid (AMS) and Lipofectamine-Plus from Invitrogen (Carlsbad, Calif.); chaetomin from Alexis Biochemicals (San Diego, Calif.); and anti-thioredoxin antibody from Cell Signaling (Beverly, Mass.). HeLa cells were obtained from ATCC.
Steady-state kinetics: The 100 μL reaction consisted of 100 mM potassium phosphate (pH 7.0), 10 mM EDTA, 0.0004 U/μL thioredoxin reductase and chaetocin or other compounds as indicated. The assay was carried out in a 96-well quartz plate and the oxidation of NADPH was measured as a change in absorption at 340 nm. The initial velocities of the reaction were calculated from the decrease in the absorbance between 0 and 5 min (slope), and on a pathlength of 0.3 cm and NADPH ε=6.22 mmol^−1*cm^−1*L. The velocity versus concentration data were then analyzed using SigmaPlot's Enzyme Kinetics 1.3 program (Systat Software, San Jose, Calif.).

[2] = test system: patient CD138+ myeloma cells and CD138- bone marrow cells; assay type: cell-based, human; conditions: 10 μM for 20 minutes, corrected for average cell volumes, 4 patients
Method: FIG. 7. Chaetocin induces oxidative stress in A549 cells without appreciable depletion of intracellular reduced glutathione levels, while the selective cytotoxicity of chaetocin in freshly collected myeloma cells appears to be attributable to their increased sensitivity to oxidative stressors. […] Chaetocin-induced increased oxidative species are attenuated by co-treatment with 10 mM NAC (C). D. Summary of results from FACS indicating changes of oxidative species induced in response to various treatments. Results shown are representative of three independent FACS experiments as described in the text; *p<0.05, **p<0.01. E. Effects of chaetocin or hydrogen peroxide (in comparison to diluent) on ROS (superoxide) levels in U266 myeloma cells as assessed using FACS analyses and hydroethidium as an ROS-sensitive FACS probe. Error bars indicate one sample standard deviation, results replicated in triplicate; ***p<0.001. […] Glutathione levels were assessed by spectrophotometric assay as described below. […] Cells were treated with 10 μM chaetocin for 20 minutes prior to assay, and calculated intracellular chaetocin levels were measured by HPLC with adjusted for differences in average cell volume (calculated from measured cell radii ascertained via light microscopy). […]

SMILES: CN1C(=O)[C@@]23C[C@]4([C@]56C[C@@]78SS[C@@](CO)(C(=O)N7[C@H]5Nc5ccccc56)N(C)C8=O)c5ccccc5N[C@@H]4N2C(=O)[C@]1(CO)SS3 [chaetocin]
- T/C values [1]: 50-60%
- Km (TrxR1): 4.6 ± 0.6 µM
- intracellular accumulation in CD138- leukocytes versus CD138+ myeloma cells [2]: no indication of lessened intracellular accumulation
